Experimental data as given in patent US20230112845A1, “COMPOSITIONS OF BERBERINE URSODE[…] METHODS THEREOF FOR TREATING FATTY LIVER DISEASE, DIABETES AND HYPERLIPIDEMIA” (SHENZHEN HIGHTIDE BIOPHARMACEUTICAL LTD., priority 2020, published 2023).

Columns and labels:
[1] = test system: subjects with a history of hypercholesterolemia; test: Phase 1b randomized placebo-controlled dose-ranging study: serum lipids, lipoproteins, HbA1c, ALT; assay type: in vivo, human; set-up: TG (serum level) / TC (serum level) / Non-HDL-c (serum level) / HDL-c (serum level): unit not given here; LDL-c (serum level): unit: mmol/L
Protocol: (§1) A double-blind, randomized, placebo-controlled, dose ranging study was carried out that compared three doses of berberine ursodeoxycholate (BUDCA, a.k.a. HTD1801) to placebo in a cohort of subjects with a history of hypercholesterolemia and serum LDL-c levels above 2.59 mmol/L (>99.9 mg/dL). BUDCA was administered in two divided doses each day for 28 days. The primary endpoints of the study were safety and tolerability of this new compound, as well as its effect in lowering serum lipid and lipoprotein concentrations.
Adult subjects were recruited and enrolled into this double-blind, randomized placebo-controlled dose ranging study at one of three research units in Australia between April and December of 2018. The key entry criteria were hypercholesterolemia, with serum LDL-c >2.59 mmol/L (>99.9 mg/dL) and overweight or obesity (BMI between 25 and 40 kg/m^2). […] Subjects were asked to discontinue the use of lipid-lowering medications at least 28 days prior to their first dose of BUDCA and for the duration of the study.
Subjects underwent an initial assessment and were then randomized to receive ascending doses of BUDCA in three sequential dosing groups: Group I received 500 mg/day of BUDCA or matching placebo in a ratio of 3:1. Group II received 1,000 mg/day of BUDCA or placebo, 3:1 and Group III received 2,000 mg/day BUDCA or placebo, 3:1. Study medication or placebo was given in two equal doses daily for 28 days. The investigational product BUDCA was administered in the form of film-coated tablets, each tablet containing 250 mg of BUDCA. The placebo was identical in appearance to the active agent. Subjects were instructed to take their tablets after breakfast and after dinner respectively with a glass of water.
The groups were enrolled sequentially, but follow-up overlapped (the next cohort could begin during the follow-up period of the prior cohort) (FIG. 1). The decision to move to the next dose level was based upon tolerability and safety findings, as assessed by a Safety Monitoring Committee. Individual subjects were admitted overnight for their first and last doses and so as to draw blood samples for pharmacokinetic studies; in between, they were seen every few days. Subjects were asked to arrive in a fasting state (typically overnight). After having vital signs measured and baseline laboratory tests taken, the subject was given a morning meal and then observed while taking their first dose of BUDCA with a glass of water. They stayed overnight to allow sampling for PK studies which were drawn at the following time points −18 hours, −12, −6, 0 time (pre-dose), +0.25 (post-dose), +0.5, +1, +2, +3, +4, +8, +12, +24 hours. Blood samples for PK studies were collected in dipotassium ethylene diamine tetra-acetic acid (K2EDTA) as the anticoagulant and the assays were done on plasma.
Blood samples for serum biochemistry (including lipid levels) and blood counts were drawn with subjects in a fasting state, at baseline and every 14 days through the study. Samples were shipped in a refrigerated state to laboratory where testing was done using routine clinical methodology, as follows: HbA1c was measured by ion-exchange HPLC (Bio-Rad D-100). For samples received by the laboratory prior to Sep. 2, 2018, the following analytes were measured on the Roche Diagnostics Modular P100 platform (ALT by photometric assay, TC by Trinder peroxidase assay, LDL-c by photometric assay, HDL-c by homogenous enzymatic colorimetric assay and TG by photometric assay). For samples received by the laboratory after Sep. 2, 2018, the following analytes were measured on the Beckman Coulter AU 5800 platform (ALT by photometric assay, TC by cholesterol-oxidase/peroxidase assay, LDL-c by homogenous enzymatic colorimetric assay, HDL-c by immune inhibition and cholesterol oxidase assay and TG by an enzymatic method using opiase/GK/GPO-PAP-4 amino phenazone). […]

[2] = test system: subjects with a history of hypercholesterolemia; test: Phase 1b study: safety and tolerability; assay type: in vivo, human; details: 28 days
Protocol: as §1
Subjects underwent an initial assessment and were then randomized to receive ascending doses of BUDCA in three sequential dosing groups: Group I received 500 mg/day of BUDCA or matching placebo in a ratio of 3:1. Group II received 1,000 mg/day of BUDCA or placebo, 3:1 and Group III received 2,000 mg/day BUDCA or placebo, 3:1. Study medication or placebo was given in two equal doses daily for 28 days. […]
The groups were enrolled sequentially, but follow-up overlapped (the next cohort could begin during the follow-up period of the prior cohort) (FIG. 1). The decision to move to the next dose level was based upon tolerability and safety findings, as assessed by a Safety Monitoring Committee. […] After having vital signs measured and baseline laboratory tests taken, the subject was given a morning meal and then observed while taking their first dose of BUDCA with a glass of water. […]

[3] = highest dose (2,000 mg per day), day 28

## COc1ccc2cc3[n+](cc2c1OC)CCc1cc2c(cc1-3)OCO2.C[C@H](CCC(=O)[O-])[C@H]1CC[C@H]2[C@@H]3[C@@H](O)C[C@@H]4C[C@H](O)CC[C@]4(C)[C@H]3CC[C@]12C [BUDCA, berberine ursodeoxycholate]
[1]; 500 mg/day, Day 14, baseline 1.25, P vs. placebo n.s.
  HDL-c (serum level): 1.22
[1]; 500 mg/day, Day 14, baseline 2.11, P vs. placebo n.s.
  TG (serum level): 1.89
[1]; 500 mg/day, Day 14, baseline 4.01, P vs. placebo n.s.
  LDL-c (serum level): 3.87
[1]; 500 mg/day, Day 14, baseline 4.85, P vs. placebo n.s.
  Non-HDL-c (serum level): 4.75
[1]; 500 mg/day, Day 14, baseline 6.13, P vs. placebo n.s.
  TC (serum level): 5.96
[1]; 500 mg/day, Day 28, baseline 1.25, P vs. placebo n.s.
  HDL-c (serum level): 1.17
[1]; 500 mg/day, Day 28, baseline 2.11, P vs. placebo n.s.
  TG (serum level): 2.27
[1]; 500 mg/day, Day 28, baseline 4.01, P vs. placebo n.s.
  LDL-c (serum level): 3.72
[1]; 500 mg/day, Day 28, baseline 4.85, P vs. placebo 0.03
  Non-HDL-c (serum level): 4.71
[1]; 500 mg/day, Day 28, baseline 6.13, P vs. placebo n.s.
  TC (serum level): 5.88
[1]; 1,000 mg/day, Day 14, baseline 1.32, P vs. placebo n.s.
  HDL-c (serum level): 1.29
[1]; 1,000 mg/day, Day 14, baseline 1.76, P vs. placebo n.s.
  TG (serum level): 1.73
[1]; 1,000 mg/day, Day 14, baseline 3.68, P vs. placebo n.s.
  LDL-c (serum level): 3.42
[1]; 1,000 mg/day, Day 14, baseline 4.48, P vs. placebo n.s.
  Non-HDL-c (serum level): 4.23
[1]; 1,000 mg/day, Day 14, baseline 5.81, P vs. placebo n.s.
  TC (serum level): 5.51
[1]; 1,000 mg/day, Day 28, baseline 1.32, P vs. placebo n.s.
  HDL-c (serum level): 1.23
[1]; 1,000 mg/day, Day 28, baseline 1.76, P vs. placebo 0.028
  TG (serum level): 1.86
[1]; 1,000 mg/day, Day 28, baseline 3.68, P vs. placebo n.s.
  LDL-c (serum level): 3.51
[1]; 1,000 mg/day, Day 28, baseline 4.48, P vs. placebo 0.025
  Non-HDL-c (serum level): 4.31
[1]; 1,000 mg/day, Day 28, baseline 5.81, P vs. placebo n.s.
  TC (serum level): 5.54
[1]; 2,000 mg/day, Day 14, baseline 1.24, P vs. placebo n.s.
  HDL-c (serum level): 1.33
[1]; 2,000 mg/day, Day 14, baseline 1.60, P vs. placebo n.s.
  TG (serum level): 1.42
[1]; 2,000 mg/day, Day 14, baseline 3.85, P vs. placebo 0.0093
  LDL-c (serum level): 3.40
[1]; 2,000 mg/day, Day 14, baseline 4.62, P vs. placebo 0.0018
  Non-HDL-c (serum level): 4.04
[1]; 2,000 mg/day, Day 14, baseline 5.91, P vs. placebo 0.01
  TC (serum level): 5.37
[1]; 2,000 mg/day, Day 28, baseline 1.24, P vs. placebo n.s.
  HDL-c (serum level): 1.29
[1]; 2,000 mg/day, Day 28, baseline 1.60, P vs. placebo 0.0018
  TG (serum level): 1.54
[1]; 2,000 mg/day, Day 28, baseline 3.85, P vs. placebo 0.091
  LDL-c (serum level): 3.44
[1]; 2,000 mg/day, Day 28, baseline 4.62, P vs. placebo 0.0002
  Non-HDL-c (serum level): 4.14
[1]; 2,000 mg/day, Day 28, baseline 5.91, P vs. placebo 0.003
  TC (serum level): 5.42
[1]; 500-2,000 mg/day, 28 days
  ALT level during therapy: did not change significantly
  HbA1C level during therapy: did not change significantly
[1]; 500-2,000 mg/day, maximum reductions relative to placebo after 14 days
  serum lipid levels among subjects receiving active therapy: decreased in a dose-dependent fashion
[1]; [3]
  change in HDL-c concentration: no significant changes
  change in TG concentration: no significant changes
[1]; highest dose (2,000 mg per day), day 28, P=0.0004
  reduction in the serum concentration of TC: 8.2%
[1]; highest dose (2,000 mg per day), day 28, P=0.0006
  reduction in the serum concentration of LDL-c: 10.4%
[2]; active drug, all doses, placebo 66%
  frequency of treatment-related adverse events: 67%
[2]; up to 2,000 mg per day
  tolerability: generally well tolerated
